Columns and labels:
Type in all cases: in vivo
[1] = test system: Heliothis virescens (Tobacco Budworm); assay: Comparative Heliothis virescens egg test in petri dishes on artificial diet; conditions: 144 h, 6 days incubation, read-out: percentage of dead larvae; for pest or weed control at 0.8 ppm: concentration 0.8 ppm; for pest or weed control at 1.5 ppm: concentration 1.5 ppm; for pest or weed control at 3 ppm: concentration 3 ppm; for pest or weed control at 6 ppm: concentration 6 ppm
Description: This Example illustrates the pesticidal/insecticidal properties of compounds of formula (I) compared to Comparative Compound A and Comparative Compound B. Comparative Compound A and Comparative Compound B were disclosed in WO 2006/003494.
(§1) Heliothis virescens (Tobacco Budworm):
Fresh eggs (0-24 h old) on filterpaper were placed in petri dishes on top of a layer of artificial diet and treated with diluted test solutions by pipetting. After an incubation period of 6 days, samples were checked for larval mortality and growth regulation. The percentage of dead larvae was assessed.

[2] = test system: Diabrotica balteata (Corn Root Worm); assay: Diabrotica balteata L2 larvae test on artificial diet in 24-well microtiter plate; conditions: 120 h, 200 ppm (concentration in well 18 ppm), 5 days, larval mortality, growth regulation
Description: Diabrotica balteata (Corn Root Worm):
A 24-well microtiter plate (MTP) with artificial diet was treated with test solutions at an application rate of 200 ppm (concentration in well 18 ppm) by pipetting. After drying, the MTP's were infested with larvae (L2) (6-10 per well). After an incubation period of 5 days, samples were checked for larval mortality, and growth regulation.

[3] = test system: Heliothis virescens (Tobacco Budworm); assay: Heliothis virescens egg test on artificial diet in 24-well microtiter plate; conditions: 96 h, 200 ppm (concentration in well 18 ppm), eggs 0-24 h old, 4 days, egg mortality, larval mortality, growth regulation
Description: as §1
Eggs (0-24 h old) were placed in 24-well microtiter plate on artificial diet and treated with test solutions at an application rate of 200 ppm (concentration in well 18 ppm) by pipetting. After an incubation period of 4 days, samples were checked for egg mortality, larval mortality and growth regulation.

[4] = test system: Plutella xylostella (Diamond Back Moth); assay: Plutella xylostella L2 larvae test on artificial diet in 24-well microtiter plate; conditions: 144 h, 200 ppm (concentration in well 18 ppm), 6 days, larval mortality, growth regulation
Description: Plutella xylostella (Diamond Back Moth):
A 24-well microtiter plate (MTP) with artificial diet was treated with test solutions at an application rate of 200 ppm (concentration in well 18 ppm) by pipetting. After drying, the MTP's were infested with L2 larvae (7-12 per well). After an incubation period of 6 days, samples were checked for larval mortality and growth regulation.

[5] = test system: Spodoptera littoralis (Egyptian Cotton Leafworm); assay: Spodoptera littoralis cotton leaf disc spray test; conditions: foliar, 72 h, 200 ppm spray on cotton leaf discs, L1 larvae, mortality, feeding behavior, growth regulation 3 DAT
Description: Spodoptera littoralis (Egyptian Cotton Leafworm)
Cotton leaf discs were placed on agar in a 24-well microtiter plate and sprayed with test solutions at an application rate of 200 ppm. After drying, the leaf discs were infested with 5 L1 larvae. The samples were checked for mortality, feeding behavior, and growth regulation 3 days after treatment (DAT).

Row | Structure (SMILES) | pest or weed control at 0.8 ppm [1] [%] | pest or weed control at 1.5 ppm [1] [%] | pest or weed control at 3 ppm [1] [%] | pest or weed control at 6 ppm [1] [%] | pest or weed control at 200 ppm [2] [%] | pest or weed control at 200 ppm [3] [%] | pest or weed control at 200 ppm [4] [%] | pest or weed control at 200 ppm [5] [%]
1 | O=C(Nc1cc(Cl)c(Br)nc1C1CCN(C/C=C/c2ccc(Cl)cc2)CC1)c1ccnc(Cl)c1 [Compound E7, N-{6-bromo-1′-[(E)-3-(4-chloro-phenyl)-allyl]-5-chloro-1′,2′,3′,4′,5′,6′-hexahydro-[2,4′]bipyridinyl-3-yl}-2-chloro-isonicotinamide] | 100 | 100 | 100 | 100 | ≥ 80 | ≥ 80 | ≥ 80 | ≥ 80
2 | O=C(Nc1cc(C(F)(F)F)c(Cl)nc1C1CCN(C/C=C/c2ccc(Cl)cc2)CC1)c1ccnc(Cl)c1 [Compound F2, 2-chloro-N-{6-chloro-1′-[(E)-3-(4-chloro-phenyl)-allyl]-5-trifluoromethyl-1′,2′,3′,4′,5′,6′-hexahydro-[2,4′]bipyridinyl-3-yl}-isonicotinamide] | 100 | 100 | 100 | 100 | ≥ 80 | ≥ 80 | ≥ 80 | ≥ 80
3 | O=C(Nc1cc(C(F)(F)F)c(Br)nc1C1CCN(C/C=C/c2ccc(Cl)cc2)CC1)c1ccnc(Cl)c1 [Compound G1, 2-chloro-N-{6-bromo-1′-[(E)-3-(4-chloro-phenyl)-allyl]-5-trifluoromethyl-1′,2′,3′,4′,5′,6′-hexahydro-[2,4′]bipyridinyl-3-yl}-isonicotinamide] | 100 | 100 | 100 | 100 | ≥ 80 | ≥ 80 | ≥ 80 | ≥ 80
